Legend:
Test in all cases: relative viability (nuclei count vs DMSO), 5 days (fraction); higher = more cells survive
ABC-1 = system: ABC-1
Method in brief: (§1)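 Nuclei were stained with Hoechst during a one-step fixation (final 0.05% Triton X-100, 1% formaldehyde, 1 ug/ml Hoechst) carried out 5 days after dosing, then counted on 4× images. The cells, lung cancer lines in 1536-well plates, had been dosed by pin tool the day after seeding with one drug alone or a fixed anchor-drug dose plus five library-drug doses (not always all listed) in √10 steps. Relative viability is the nuclei count in treated wells divided by that in vehicle wells, and each value is the median of duplicate plates.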

CAL-12T = system: CAL-12T
Method in brief: as §1

COR-L 105 = system: COR-L 105
Method in brief: as §1

ChaGo-K-1 = system: ChaGo-K-1
Method in brief: as §1

EMC-BAC-2 = system: EMC-BAC-2
Method in brief: as §1

EPLC-272H = system: EPLC-272H
Method in brief: as §1

HCC-15 = system: HCC-15
Method in brief: as §1

HOP-62 = system: HOP-62
Method in brief: as §1

LXF-289 = system: LXF-289
Method in brief: as §1

NCI-H1666 = system: NCI-H1666
Method in brief: as §1

NCI-H1755 = system: NCI-H1755
Method in brief: as §1

NCI-H1915 = system: NCI-H1915
Method in brief: as §1

NCI-H1975 = system: NCI-H1975
Method in brief: as §1

NCI-H2023 = system: NCI-H2023
Method in brief: as §1

NCI-H2085 = system: NCI-H2085
Method in brief: as §1

NCI-H2126 = system: NCI-H2126
Method in brief: as §1

NCI-H3122 = system: NCI-H3122
Method in brief: as §1

NCI-H322M = system: NCI-H322M
Method in brief: as §1

NCI-H358 = system: NCI-H358
Method in brief: as §1

NCI-H441 = system: NCI-H441
Method in brief: as §1

UMC-11 = system: UMC-11
Method in brief: as §1

Work on `CCN(CC)CCCCNc1ncc2cc(-c3cc(OC)cc(OC)c3)c(NC(=O)NC(C)(C)C)nc2n1` + CCNC(=O)c1noc(-c2cc(C(C)C)c(O)cc2O)c1-c1ccc(CN2CCOCC2)cc1 [Luminespib] (partner 0.01 µM) yielded a relative viability (ABC-1; first compound 0.01 µM) of 0.731, a relative viability (ABC-1; first compound 0.03162 µM) of 0.405 and a relative viability (ABC-1; first compound 0.1 µM) of 0.832. The relative viability (ABC-1; first compound 0.3162 µM) was 0.416, the relative viability (ABC-1; first compound 1 µM) was 0.693 and the relative viability (CAL-12T; first compound 0.01 µM) was 0.63. It also gave a relative viability (CAL-12T; first compound 0.03162 µM) of 0.338, a relative viability (CAL-12T; first compound 0.1 µM) of 0.363 and a relative viability (CAL-12T; first compound 0.3162 µM) of 0.445. For the same molecule, the relative viability (CAL-12T; first compound 1 µM) was 0.347, the relative viability (COR-L 105; first compound 0.01 µM) was 0.909 and the relative viability (COR-L 105; first compound 0.03162 µM) was 0.698. It also gave a relative viability (COR-L 105; first compound 0.1 µM) of 0.73, a relative viability (COR-L 105; first compound 0.3162 µM) of 0.795 and a relative viability (COR-L 105; first compound 1 µM) of 0.68. For the same molecule, the relative viability (ChaGo-K-1; first compound 0.01 µM) was 0.618, the relative viability (ChaGo-K-1; first compound 0.03162 µM) was 0.638 and the relative viability (ChaGo-K-1; first compound 0.1 µM) was 0.727. The relative viability (ChaGo-K-1; first compound 0.3162 µM) was 0.679, the relative viability (ChaGo-K-1; first compound 1 µM) was 0.811 and the relative viability (EMC-BAC-2; first compound 0.01 µM) was 1.27. For the same molecule, the relative viability (EMC-BAC-2; first compound 0.03162 µM) was 1.16, the relative viability (EMC-BAC-2; first compound 0.1 µM) was 1.08 and the relative viability (EMC-BAC-2; first compound 0.3162 µM) was 1.35. For the same molecule, the relative viability (EMC-BAC-2; first compound 1 µM) was 1.05, the relative viability (EPLC-272H; first compound 0.01 µM) was 0.26 and the relative viability (EPLC-272H; first compound 0.03162 µM) was 0.266. It also gave a relative viability (EPLC-272H; first compound 0.1 µM) of 0.204, a relative viability (EPLC-272H; first compound 0.3162 µM) of 0.219 and a relative viability (EPLC-272H; first compound 1 µM) of 0.329. It also gave a relative viability (HCC-15; first compound 0.01 µM) of 0.251, a relative viability (HCC-15; first compound 0.03162 µM) of 0.257 and a relative viability (HCC-15; first compound 0.1 µM) of 0.348. The relative viability (HCC-15; first compound 0.3162 µM) was 0.422, the relative viability (HCC-15; first compound 1 µM) was 0.266 and the relative viability (HOP-62; first compound 0.01 µM) was 1.12. The relative viability (HOP-62; first compound 0.03162 µM) was 0.986, the relative viability (HOP-62; first compound 0.1 µM) was 1.02 and the relative viability (HOP-62; first compound 0.3162 µM) was 0.961. For the same molecule, the relative viability (HOP-62; first compound 1 µM) was 0.888, the relative viability (LXF-289; first compound 0.01 µM) was 0.727 and the relative viability (LXF-289; first compound 0.03162 µM) was 0.668. For the same molecule, the relative viability (LXF-289; first compound 0.1 µM) was 0.699, the relative viability (LXF-289; first compound 0.3162 µM) was 0.801 and the relative viability (LXF-289; first compound 1 µM) was 0.577. It also gave a relative viability (NCI-H1666; first compound 0.01 µM) of 0.944, a relative viability (NCI-H1666; first compound 0.03162 µM) of 0.971 and a relative viability (NCI-H1666; first compound 0.1 µM) of 1.04. The relative viability (NCI-H1666; first compound 0.3162 µM) was 1.02, the relative viability (NCI-H1666; first compound 1 µM) was 0.794 and the relative viability (NCI-H1755; first compound 0.01 µM) was 0.455. The relative viability (NCI-H1755; first compound 0.03162 µM) was 0.694, the relative viability (NCI-H1755; first compound 0.1 µM) was 0.458 and the relative viability (NCI-H1755; first compound 0.3162 µM) was 0.606. It also gave a relative viability (NCI-H1755; first compound 1 µM) of 0.44, a relative viability (NCI-H1915; first compound 0.01 µM) of 0.885 and a relative viability (NCI-H1915; first compound 0.03162 µM) of 0.863. For the same molecule, the relative viability (NCI-H1915; first compound 0.1 µM) was 1.02, the relative viability (NCI-H1915; first compound 0.3162 µM) was 0.932 and the relative viability (NCI-H1915; first compound 1 µM) was 0.711. It also gave a relative viability (NCI-H1975; first compound 0.01 µM) of 0.161, a relative viability (NCI-H1975; first compound 0.03162 µM) of 0.148 and a relative viability (NCI-H1975; first compound 0.1 µM) of 0.201. For the same molecule, the relative viability (NCI-H1975; first compound 0.3162 µM) was 0.366, the relative viability (NCI-H1975; first compound 1 µM) was 0.199 and the relative viability (NCI-H2023; first compound 0.01 µM) was 0.663. It also gave a relative viability (NCI-H2023; first compound 0.03162 µM) of 1.05, a relative viability (NCI-H2023; first compound 0.1 µM) of 0.745 and a relative viability (NCI-H2023; first compound 0.3162 µM) of 0.833. The relative viability (NCI-H2023; first compound 1 µM) was 0.545, the relative viability (NCI-H2085; first compound 0.01 µM) was 0.419 and the relative viability (NCI-H2085; first compound 0.03162 µM) was 0.424. It also gave a relative viability (NCI-H2085; first compound 0.1 µM) of 0.402, a relative viability (NCI-H2085; first compound 0.3162 µM) of 0.405 and a relative viability (NCI-H2085; first compound 1 µM) of 0.458. The relative viability (NCI-H2126; first compound 0.01 µM) was 0.985, the relative viability (NCI-H2126; first compound 0.03162 µM) was 0.876 and the relative viability (NCI-H2126; first compound 0.1 µM) was 0.953. It also gave a relative viability (NCI-H2126; first compound 0.3162 µM) of 0.92, a relative viability (NCI-H2126; first compound 1 µM) of 0.898 and a relative viability (NCI-H3122; first compound 0.01 µM) of 0.0914. It also gave a relative viability (NCI-H3122; first compound 0.03162 µM) of 0.082, a relative viability (NCI-H3122; first compound 0.1 µM) of 0.112 and a relative viability (NCI-H3122; first compound 0.3162 µM) of 0.0822. For the same molecule, the relative viability (NCI-H3122; first compound 1 µM) was 0.127, the relative viability (NCI-H322M; first compound 0.01 µM) was 0.884 and the relative viability (NCI-H322M; first compound 0.03162 µM) was 0.854. The relative viability (NCI-H322M; first compound 0.1 µM) was 0.859, the relative viability (NCI-H322M; first compound 0.3162 µM) was 0.988 and the relative viability (NCI-H322M; first compound 1 µM) was 0.799. For the same molecule, the relative viability (NCI-H358; first compound 0.01 µM) was 0.429, the relative viability (NCI-H358; first compound 0.03162 µM) was 0.193 and the relative viability (NCI-H358; first compound 0.1 µM) was 0.348. The relative viability (NCI-H358; first compound 0.3162 µM) was 0.503, the relative viability (NCI-H358; first compound 1 µM) was 0.347 and the relative viability (NCI-H441; first compound 0.01 µM) was 0.313. The relative viability (NCI-H441; first compound 0.03162 µM) was 0.422, the relative viability (NCI-H441; first compound 0.1 µM) was 0.344 and the relative viability (NCI-H441; first compound 0.3162 µM) was 0.353. The relative viability (NCI-H441; first compound 1 µM) was 0.362, the relative viability (UMC-11; first compound 0.01 µM) was 1.05 and the relative viability (UMC-11; first compound 0.03162 µM) was 1.08. It also gave a relative viability (UMC-11; first compound 0.1 µM) of 1.25, a relative viability (UMC-11; first compound 0.3162 µM) of 1.04 and a relative viability (UMC-11; first compound 1 µM) of 0.94.

Reference: the supplement of paper PMC10307832
